From patent US7932239B2, “Methods of and compositions for reducing neuronal cell death” (Wisconsin Alumni Research Foundation, priority 2005, dated 2011)

How the values were obtained:
[1] = system: retinal ganglion cells (RGCs); conditions: previous studies, cited from earlier work
[2] = system: retinal ganglion cells (RGCs); experiment: Viability of acutely axotomized retinal ganglion cells in culture (DAPI retrograde labeling, calcein-AM staining) at 72 hours; assay type: cell-based, rat; conditions: for rescue of RGCs (in words): at 100 μM
Protocol: DAPI binds to nuclear DNA and fluoresces under UV light. At postnatal days eleven to thirteen, the animals were sacrificed by decapitation, the eyes enucleated, and the retinas dissected in Hank's balanced salt solution (HBSS). After two incubations in enzyme solution containing papain (3.7 U/ml), each for 30 minutes at 37° C., the retinas were gently triturated with a Pasteur pipette and plated on poly-L-lysine-coated 96-well flat-bottomed tissue culture plates (0.32 cm^2 surface area/well) at a density of approximately 2000 cells/mm^2. The cells were cultured for 72 hours in Neurobasal-A, B27 supplement lacking antioxidants in a humidified 5% CO2 incubator at 37° C.
Retinal Ganglion Cell Identification and Counting: RGCs were identified by the presence of DAPI, which appears blue when viewed with appropriate filters under epifluorescence. Cell viability was determined by metabolism of calcein-AM, which produces a green fluorescence when viewed with fluorescein filters. Cells were incubated in a 1 μM solution of calcein-AM in phosphate-buffered saline (PBS) for 30 minutes, after which the medium was replaced with fresh PBS. Wells were counted in duplicate or in triplicate.
Statistical Analysis: All RGC viability calculations were normalized to the control (no treatment) condition by dividing the mean number of living RGCs in an experimental condition by the mean in controls. Comparisons were by unpaired t-test.

[3] = system: RGCs; experiment: RGC death after optic nerve crush in vivo, intravitreal injection, RGC density in retinal whole mounts; design: species or system rat; conditions: 7 to 14 days after optic nerve crush, written in present tense
Protocol: Optic Nerve Crush Surgery and Intravitreal Injections: Surgeries are conducted on adult (i.e. eight to twelve week old) rats that have previously received 1,1′-dioctadecyl-3,3,3′,3′-tetramethylindocarbocyanine (DiI) injections. All surgeries are done aseptically and are performed on the left eye only. Animals are anesthetized with a mixture of ketamine and xylazine. A limited lateral canthotomy is performed. The conjunctiva is then incised at the limbus and the subtenons space bluntly dissected posteriorly. […] The muscle cone is then entered and the optic nerve exposed. A longitudinal incision is made along the meningeal sheath to expose the optic nerve axons and to avoid disturbing the retinal blood supply. The axons of the optic nerve are then crushed with blunt forceps for 5 seconds 2 mm posterior to the globe under direct visualization. […]
RGC Density Determination: Retinal wholemounts are imaged with an Axiocarn HRc digital camera attached to a Zeiss Axiophot fluorescent microscope. […] The density of RGCs/mm^2 is determined by counting labeled DiI cells in three areas per retinal quadrant at three different eccentricities of the retinal radius for a total of twelve regions per retina. Cells positive for both DiI and BSL-I, as determined by bright yellow labeling when DiI (red) and BSL-I (green) images are merged, are subtracted from the total DiI count. […]

[4] = system: RGCs; conditions: after one to twelve weeks; written in present tense
Description: Unilateral experimental glaucoma is induced in the rat using the Quigley protocol for laser ablation of the trabecular meshwork and of the circumferential episcleral vessels. […] The animals are anesthetized as in Example 2. A diode laser at 532 nm (0.2-0.4 watts and 0.3-0.7 second duration, depending on degree of pigmentation) is used to administer laser treatment at the trabecular meshwork and at the episcleral veins draining the perilimbal vessel plexus of vessel. In case a milder IOP rise is required, animals can be treated only at the trabecular meshwork. The laser treatment is repeated at 1 week if the IOP difference between the treated eye and the untreated eye is less than 6 mm Hg. Following laser treatment, sterile drug (i.e. PB1 or PB2) or control (BSS) is administered.
IOP is measured by putting a drop of 0.5% proparacaine in the eye, gently cradling the rat and touching the anesthetized eye with a Tonopen tonometer tip for a fraction of a second, usually for 3±2 times, more if the standard deviation is high. […] Depending on the experiment, the IOP is initially measured daily and then weekly.
After one to twelve weeks animals are sacrificed and RGC counts are performed as described in Example 2.

[5] = system: RGCs; conditions: injected intravitreally into adult rats, previous studies; cited from earlier work
[6] = at 1 μM and 100 μM, 72 hours, p<0.05

O[C@H](CS)[C@H](O)CS (racemic) [DTT, dithiothreitol]
effectiveness at nanomolar concentrations (in words) [1]: not effective

O=C(O)c1ccccc1P(c1ccccc1)c1ccccc1 [2DPBA, 2-(diphenylphosphino)benzoic acid]
relative RGC survival (compared to control) ([2]; 10 nM, 72 hours): 216±18%
neuroprotection of RGCs (in words) [2, 6]: significant protection
concentration at which neuroprotective for RGCs (lowest) ([2]; dose response, 72 hours): 10 nM

O=S(=O)([O-])c1cccc(P(c2cccc(S(=O)(=O)[O-])c2)c2cccc(S(=O)(=O)[O-])c2)c1.[Na+].[Na+].[Na+] [3BSA, 3,3′,3″-phosphinidynetris(benzene-sulfonic acid) trisodium salt]
relative RGC survival (compared to control) ([2]; 100 μM, 72 hours): 206±6%
rescue of RGCs (in words) ([2]; 72 hours): rescue RGCs

O=C(O)c1ccc(P(c2ccccc2)c2ccccc2)cc1 [4DPBA, 4-(diphenylphosphino)benzoic acid]
relative RGC survival (compared to control) ([2]; 1 μM, 72 hours): 183±19%
neuroprotection of RGCs (in words) [2, 6]: neuroprotection

[BH3-][P+](CCC(=O)OC)(CCC(=O)OC)c1ccccc1 [PB1, bis(3-propionic acid methyl ester)phenylphosphine borane complex]
relative RGC survival (compared to control) ([2]; 1 nM, 72 hours after axotomy): 174±12%
neuroprotection of RGCs (in words) ([2]; at picomolar concentrations, 72 hours): highly effective
concentration at which neuroprotective for RGCs (lowest) ([2]; dose response, 72 hours): ≥ 1 nM
RGC density compared to controls (in words) [3]: greater RGC density
RGC cell death compared to controls (in words) [4]: attenuated

[BH3-][P+](CCC(=O)OC)(c1ccccc1)c1ccccc1 [PB2, (3-propionic acid methyl ester)diphenylphosphine borane complex]
relative RGC survival (compared to control) ([2]; 10 pM, 72 hours after axotomy): 180±10%
concentration at which neuroprotective for RGCs (lowest) ([2]; dose response 1 pM to 100 μM, 72 hours): ≥ 0.01 nM
RGC density compared to controls (in words) [3]: greater RGC density
RGC cell death compared to controls (in words) [4]: attenuated

O=C(O)CCP(CCC(=O)O)CCC(=O)O [TCEP, tris-(2-carboxyethyl) phosphine]
rescue of RGCs (in words) ([2]; 72 hours): mildly rescued RGCs
effectiveness at nanomolar concentrations (in words) [1]: not effective
concentration required for RGC neuroprotection [1]: ~100 µM
RGC death after optic nerve crush (in words) [5]: inhibited RGC death
